Source: patent US20250195490A1, “ALPHA-METHYLENE AND AMINOMETHYL LACTONES AND LACTAMS FOR TREATMENT OF CLOSTRIDIOIDES DIFFICILE INFECTION (CDI)” (Purdue Research Foundation, priority 2022, published 2025)
Converted amounts (≈) assume the structure as drawn. Read-outs that look alike come from different tables or passages of the source.

Columns and labels:
Clostridioides difficile = experiment: MIC by broth microdilution against Clostridioides difficile (Table 1); format: cell-based; conditions: Clostridioides difficile, BAA1870; anaerobic, 48 hours; strain BAA-1870; read-out: MIC Clostridioides difficile
Protocol: Method: The minimum inhibitory concentration (MIC) of the compounds and control drugs, linezolid (antibiotic), vancomycin (antibiotic), 5-fluorocytosine (5-FC, antifungal drug), and fluconazole (antifungal drug) was determined using the broth microdilution method according to the guidelines outlined by the Clinical and Laboratory Standards Institute (CLSI) against clinically relevant bacterial (methicillin-resistant Staphylococcus aureus (MRSA), vancomycin-resistant Enterococcus faecalis (VRE), vancomycin-resistant Enterococcus faecium (VRE), Clostridioides difficile and Escherichia coli) and fungal (Candida albicans) strains. A solution equivalent to 0.5 McFarland standard was prepared from each strain and diluted in cation-adjusted Mueller-Hinton broth (for S. aureus and E. coli), tryptone soy broth (for E. faecalis), or brain heart infusion broth (for E. faecium) to achieve a bacterial inoculum of about 5×10^5 CFU/mL. C. difficile strains were cultured in brain heart infusion broth supplemented with hemin and vitamin K. C. albicans was diluted in RPMI medium supplemented with 3-(N-morpholino) propanesulfonic acid to achieve a fungal concentration of about 1.5×10^3 CFU/mL. Compounds and control drugs were added in the first row of the 96-well plates and diluted with media containing bacteria (to achieve a concentration gradient ranging from 128 to 1 μg/mL). For MRSA, VRE, and E. coli strains, plates were then incubated aerobically at 37° C. for at least 18 hours. C. albicans was incubated aerobically at 37° C. for 24 hours. Plates containing C. difficile were incubated anaerobically at […] for 48 hours.

[1] = test system: hypervirulent Clostridioides difficile strains; experiment: MIC against hypervirulent Clostridioides difficile strains; format: cell-based; conditions: Clostridioides difficile
Protocol: (§1) The antibacterial activity of compounds 48, 50, 51, 61 and 85 against a panel of Clostridioides difficile strains was evaluated. A bacterial solution equivalent to 0.5 McFarland standard was prepared and diluted in brain heart infusion broth supplemented with hemin and vitamin K. Compounds and control drugs were added in the first row of 96-well plates and serially diluted with media containing bacteria (to achieve a concentration gradient ranging from 128 to 1 μg/mL). Plates were then incubated anaerobically at […] for 48 hours.

[2] = test system: clinically important Clostridioides difficile strains; experiment: MIC against clinically important Clostridioides difficile strains; format: cell-based; conditions: Clostridioides difficile, read-out: MIC
Protocol: as §1

L. gasseri = experiment: MIC against human normal gut microbiota: L. gasseri; format: cell-based, Lactobacillus gasseri; conditions: Lactobacillus gasseri; L. gasseri HM 407; read-out: MIC
Text: (§2) The activity of the selected lactones against the human gut microbiota was also examined. Microbiota interfere with C. difficile's ability to colonize the gastrointestinal tract and subsequently cause infection. Many antibiotics inhibit/kill the endogenous microflora, which permits enhanced colonization by C. difficile and infection. Three different bacterial species that are present in the gut microflora were used in this experiment; Bifidobacterium (anaerobic Gram-positive bacteria), Bacteroides (anaerobic Gram-negative bacteria) and Lactobacillus (microaerophilic Gram-positive bacteria). Ideal compounds/drugs are those with selective antibacterial activity against C. difficile so as to protect the indigenous microflora present in the GI tract from being damaged/killed (which will exacerbate infections caused by C. difficile).
(§3) Bifidobacterium and Bacteroides were first grown for 48 hours at 37° C., anaerobically, using brain heart infusion supplemented (BHIS) agar (brain heart infusion agar supplemented with hemin, vitamin K and L-cysteine). Lactobacillus was cultivated on MRS agar and incubated in the presence of 5% CO2 for 48 hours at 37° C. Each bacterium was suspended in phosphate-buffered saline (PBS) to achieve 0.5 McFarland standard and subsequently diluted in brain heart infusion supplemented broth (for Bifidobacterium and Bacteroides) or in MRS broth (for Lactobacillus) to achieve a bacterial inoculum of approximately 5×10^5 CFU/mL. Bacteria were then seeded in 96-well plates containing serial dilutions of the compounds and incubated for 48 hours. MICs reported in Table 4 are the minimum concentration of compound/control drug that inhibited the visual growth of bacteria.

L. casei = experiment: MIC against human normal gut microbiota: L. casei; format: cell-based, Lactobacillus casei; conditions: Lacticaseibacillus casei; L. casei HM 334; read-out: MIC
Text: as §2, §3

L. reuteri = experiment: MIC against human normal gut microbiota: L. reuteri; format: cell-based, Lactobacillus reuteri; conditions: Limosilactobacillus reuteri; L. reuteri HM 120; read-out: MIC
Text: as §2, §3

L. crispatus = experiment: MIC against human normal gut microbiota: L. crispatus; format: cell-based, Lactobacillus crispatus; conditions: Lactobacillus crispatus, read-out: MIC
Text: as §2, §3

Ba. fragilis = experiment: MIC against human normal gut microbiota: Bacteroides fragilis; format: cell-based
Text: as §2, §3

Ba. dorsei = experiment: MIC against human normal gut microbiota: Bacteroides dorsei; format: cell-based
Text: as §2, §3

Bi. breve = experiment: MIC against human normal gut microbiota: Bifidobacterium breve; format: cell-based; conditions: Bifidobacterium breve; Bi. breve HM 856; read-out: MIC
Text: as §2, §3

Bi. longum = experiment: MIC against human normal gut microbiota: Bifidobacterium longum; format: cell-based; conditions: Bifidobacterium longum; Bi. longum HM 848; read-out: MIC
Text: as §2, §3

normal gut microflora = experiment: Activity against normal human gut microflora (panel statement); format: cell-based
Text: as §2
Bifidobacterium and Bacteroides were first grown for 48 hours at 37° C., anaerobically, using brain heart infusion supplemented (BHIS) agar (brain heart infusion agar supplemented with hemin, vitamin K and L-cysteine). Lactobacillus was cultivated on MRS agar and incubated in the presence of 5% CO2 for 48 hours at 37° C. […]

SMILES: Cc1ncc([N+](=O)[O-])n1CCO [Metronidazole, reference compound]
- MIC (Clostridioides difficile): 0.25 µg/mL (≈ 1.46 µM)
- MIC ([1]; CD strain 81): 0.125 µg/mL (≈ 0.73 µM)
- MIC ([1]; CD strain 82): 0.25 µg/mL (≈ 1.46 µM)
- MIC ([1]; CD strain 83): 0.25 µg/mL (≈ 1.46 µM)
- MIC ([1]; CD strain 84): 0.25 µg/mL (≈ 1.46 µM)
- MIC ([1]; CD strain 85): 0.25 µg/mL (≈ 1.46 µM)
- MIC ([1]; CD strain 86): 0.125 µg/mL (≈ 0.73 µM)
- MIC ([1]; CD strain 87): 0.125 µg/mL (≈ 0.73 µM)
- MIC ([1]; CD strain 90): 0.125 µg/mL (≈ 0.73 µM)
- MIC ([1]; CD strain 49279): 0.125 µg/mL (≈ 0.73 µM)
- MIC ([1]; CD strain 49287): ≤ 0.06 µg/mL
- MIC ([1]; CD strain 49291): 0.125 µg/mL (≈ 0.73 µM)
- MIC ([2]; CD strain 16): 0.25 µg/mL (≈ 1.46 µM)
- MIC ([2]; CD strain 18): ≤ 0.06 µg/mL
- MIC ([2]; CD strain 19): 0.125 µg/mL (≈ 0.73 µM)
- MIC ([2]; CD strain 1801): 0.125 µg/mL (≈ 0.73 µM)
- MIC ([2]; CD strain 43255): 0.125 µg/mL (≈ 0.73 µM)
- MIC ([2]; CD strain P6): ≤ 0.06 µg/mL
- MIC ([2]; CD strain P7): 0.25 µg/mL (≈ 1.46 µM)
- MIC ([2]; CD strain P13): ≤ 0.06 µg/mL
- MIC ([2]; CD strain P19): 0.25 µg/mL (≈ 1.46 µM)
- MIC (L. gasseri): > 128 µg/mL
- MIC (L. casei): > 128 µg/mL
- MIC (L. reuteri): > 128 µg/mL
- MIC (L. crispatus; L. crispatus HM 375): > 128 µg/mL
- MIC (L. crispatus; L. crispatus HM 421): > 128 µg/mL
- MIC (Ba. fragilis; Ba. fragilis HM 710): ≤1 µg/mL
- MIC (Ba. fragilis; Ba. fragilis HM 711): ≤1 µg/mL
- MIC (Ba. fragilis; Ba. fragilis HM 714): ≤1 µg/mL
- MIC (Ba. fragilis; Bacteroides fragilis, Ba. fragilis HM 709, read-out: MIC): ≤ 1 µg/mL
- MIC (Ba. dorsei; Ba. dorsei HM 717): ≤1 µg/mL
- MIC (Ba. dorsei; Bacteroides, Ba. dorsei HM 29, read-out: MIC): ≤ 1 µg/mL
- MIC (Bi. breve): ≤ 1 µg/mL
- MIC (Bi. longum): 64 µg/mL (≈ 374 µM)
- inhibition of bacteria of the normal gut microflora (normal gut microflora): inhibited growth of species of Bacteroides and Bifidobacterium
